Data published in patent US12448395B2 (BRISTOL-MYERS SQUIBB COMPANY, priority 2019, dated 2025).
One block for each compound: values may come before it.

Legend:
[1] = biological target: T1, human TLR7 (Homo sapiens, UniProt Q9NYK1); assay: TLR7 inhibition reporter assay (HEK-Blue SEAP, gardiquimod stimulation); format: cell-based; details: HEK-Blue cells overexpressing human TLR7, gardiquimod 7.5 μM
T1 sequence (Q9NYK1 27-1049): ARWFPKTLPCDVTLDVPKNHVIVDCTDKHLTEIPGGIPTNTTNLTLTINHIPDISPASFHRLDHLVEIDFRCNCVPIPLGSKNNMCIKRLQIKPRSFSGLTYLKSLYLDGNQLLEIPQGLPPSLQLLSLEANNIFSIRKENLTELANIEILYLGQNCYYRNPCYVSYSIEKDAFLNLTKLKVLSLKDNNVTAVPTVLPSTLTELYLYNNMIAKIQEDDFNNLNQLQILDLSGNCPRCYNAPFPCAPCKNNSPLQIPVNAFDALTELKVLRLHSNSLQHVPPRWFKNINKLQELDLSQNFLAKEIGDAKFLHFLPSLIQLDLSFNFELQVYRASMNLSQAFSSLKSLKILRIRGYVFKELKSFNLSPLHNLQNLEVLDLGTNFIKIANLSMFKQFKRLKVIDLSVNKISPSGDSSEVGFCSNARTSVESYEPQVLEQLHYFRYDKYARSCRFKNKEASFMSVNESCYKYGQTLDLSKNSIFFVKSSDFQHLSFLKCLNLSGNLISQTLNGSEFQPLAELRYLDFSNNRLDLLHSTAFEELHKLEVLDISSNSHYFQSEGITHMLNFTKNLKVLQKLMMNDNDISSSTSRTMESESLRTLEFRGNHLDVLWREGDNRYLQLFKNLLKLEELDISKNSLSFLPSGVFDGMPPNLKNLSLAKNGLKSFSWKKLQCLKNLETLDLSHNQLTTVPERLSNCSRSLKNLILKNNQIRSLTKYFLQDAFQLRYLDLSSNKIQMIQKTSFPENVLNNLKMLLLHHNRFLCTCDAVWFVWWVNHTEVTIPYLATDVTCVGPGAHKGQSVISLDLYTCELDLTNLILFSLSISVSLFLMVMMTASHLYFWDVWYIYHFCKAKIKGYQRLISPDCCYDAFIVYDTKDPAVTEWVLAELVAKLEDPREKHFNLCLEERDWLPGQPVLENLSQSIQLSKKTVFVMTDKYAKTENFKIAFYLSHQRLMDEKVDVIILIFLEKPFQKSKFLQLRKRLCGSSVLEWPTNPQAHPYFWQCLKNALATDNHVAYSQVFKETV
Protocol: (§1) TLR7/8/9 Inhibition Reporter Assays
(§2) HEK-Blue™-cells (Invivogen) overexpressing human TLR7, TLR8 or TLR9 receptors were used for screening inhibitors of these receptors using an inducible SEAP (secreted embryonic alkaline phosphatase) reporter gene under the control of the IFN-β minimal promoter fused to five NF-κB and AP-1-binding sites. Briefly, cells are seeded into Greiner 384 well plates (15000 cells per well for TLR7, 20,000 for TLR8 and 25,000 for TLR9) and then treated with test compounds in DMSO to yield a final dose response concentration range of 0.05 nM-50 μM. After a 30 minute compound pre-treatment at room temperature, the cells are then stimulated with a TLR7 ligand (gardiquimod at a final concentration of 7.5 μM), TLR8 ligand (R848 at a final concentration of 15.9 μM) or TLR9 ligand (ODN2006 at a final concentration of 5 nM) to activate NF-κB and AP-1 which induce the production of SEAP. After a 22 hour incubation at 37° C., 5% CO2, SEAP levels are determined with the addition of HEK-Blue™ Detection reagent (Invivogen), a cell culture medium that allows for detection of SEAP, according to manufacturer's specifications. The percent inhibition is determined as the % reduction in the HEK-Blue signal present in wells treated with agonist plus DMSO alone compared to wells treated with a known inhibitor.

[2] = biological target: T2, human TLR9 (Homo sapiens, UniProt Q9NR96); assay: TLR9 inhibition reporter assay (HEK-Blue SEAP, ODN2006 stimulation); format: cell-based; details: HEK-Blue cells overexpressing human TLR9, ODN2006 5 nM
T2 sequence (Q9NR96 26-1032): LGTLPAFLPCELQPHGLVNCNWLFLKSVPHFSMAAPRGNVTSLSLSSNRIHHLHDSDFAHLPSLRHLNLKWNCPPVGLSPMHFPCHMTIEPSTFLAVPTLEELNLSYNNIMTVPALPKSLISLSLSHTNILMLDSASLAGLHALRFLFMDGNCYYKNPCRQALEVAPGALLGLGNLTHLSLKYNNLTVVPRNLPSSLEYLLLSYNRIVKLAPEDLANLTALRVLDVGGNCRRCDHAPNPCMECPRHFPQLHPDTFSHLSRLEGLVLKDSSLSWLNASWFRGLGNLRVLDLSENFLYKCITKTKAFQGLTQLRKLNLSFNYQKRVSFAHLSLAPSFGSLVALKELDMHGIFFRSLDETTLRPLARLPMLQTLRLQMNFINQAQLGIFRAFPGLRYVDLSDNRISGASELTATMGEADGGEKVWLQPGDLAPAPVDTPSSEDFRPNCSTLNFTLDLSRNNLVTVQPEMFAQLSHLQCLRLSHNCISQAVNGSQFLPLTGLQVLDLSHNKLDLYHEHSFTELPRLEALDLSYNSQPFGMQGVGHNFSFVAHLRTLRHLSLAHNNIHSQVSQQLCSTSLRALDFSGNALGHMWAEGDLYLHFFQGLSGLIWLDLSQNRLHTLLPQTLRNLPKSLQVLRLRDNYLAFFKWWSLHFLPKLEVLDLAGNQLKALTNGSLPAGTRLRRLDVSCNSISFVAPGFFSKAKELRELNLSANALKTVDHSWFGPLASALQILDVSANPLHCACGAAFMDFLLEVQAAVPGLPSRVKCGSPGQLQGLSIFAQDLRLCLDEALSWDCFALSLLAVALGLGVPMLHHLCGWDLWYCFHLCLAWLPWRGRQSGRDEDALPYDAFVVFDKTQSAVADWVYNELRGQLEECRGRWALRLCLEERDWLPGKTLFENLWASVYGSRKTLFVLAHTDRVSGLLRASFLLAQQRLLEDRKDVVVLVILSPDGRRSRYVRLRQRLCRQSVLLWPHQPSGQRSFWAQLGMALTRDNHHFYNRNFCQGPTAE
Procedure, shortened: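 Compound treatment: 30 min, RT, 0.05 nM–50 μM final. Agonist: TLR7 gardiquimod 7.5 μM; TLR8 R848 15.9 μM; TLR9 ODN2006 5 nM. Incubation 22 h, 37 °C, 5% CO2. Readout SEAP, HEK-Blue Detection.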

[3] = biological target: T3, human TLR8 (Homo sapiens, UniProt Q9NR97); assay: TLR8 inhibition reporter assay (HEK-Blue SEAP, R848 stimulation); format: cell-based; details: HEK-Blue cells overexpressing human TLR8, R848 15.9 μM
T3 sequence (Q9NR97 27-1041): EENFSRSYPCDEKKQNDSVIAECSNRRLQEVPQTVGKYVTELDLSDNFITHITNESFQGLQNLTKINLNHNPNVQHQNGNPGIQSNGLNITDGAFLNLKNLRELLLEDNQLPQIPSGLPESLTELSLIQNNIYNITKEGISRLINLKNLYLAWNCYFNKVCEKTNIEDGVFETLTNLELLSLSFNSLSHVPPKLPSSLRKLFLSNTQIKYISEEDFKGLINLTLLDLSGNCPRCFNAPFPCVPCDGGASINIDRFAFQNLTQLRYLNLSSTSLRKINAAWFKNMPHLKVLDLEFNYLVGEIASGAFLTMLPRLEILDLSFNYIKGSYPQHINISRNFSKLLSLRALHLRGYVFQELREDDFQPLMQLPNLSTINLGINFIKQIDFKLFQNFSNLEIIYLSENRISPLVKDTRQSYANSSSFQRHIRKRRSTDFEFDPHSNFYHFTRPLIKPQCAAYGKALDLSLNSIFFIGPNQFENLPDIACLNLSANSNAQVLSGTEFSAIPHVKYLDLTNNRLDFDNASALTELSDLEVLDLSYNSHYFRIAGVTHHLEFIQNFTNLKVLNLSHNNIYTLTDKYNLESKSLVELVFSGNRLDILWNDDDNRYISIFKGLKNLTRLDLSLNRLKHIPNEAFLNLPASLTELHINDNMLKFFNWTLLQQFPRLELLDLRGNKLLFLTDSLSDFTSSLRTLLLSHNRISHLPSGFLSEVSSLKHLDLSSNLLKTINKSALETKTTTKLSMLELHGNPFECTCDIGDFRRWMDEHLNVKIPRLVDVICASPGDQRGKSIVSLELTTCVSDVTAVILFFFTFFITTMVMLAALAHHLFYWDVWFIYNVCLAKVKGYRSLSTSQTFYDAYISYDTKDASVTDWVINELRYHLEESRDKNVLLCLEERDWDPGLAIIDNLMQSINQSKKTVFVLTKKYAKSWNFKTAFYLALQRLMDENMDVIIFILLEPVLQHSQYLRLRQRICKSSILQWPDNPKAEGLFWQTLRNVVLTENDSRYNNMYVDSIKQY
Protocol: as §1, §2

[4] = biological target: T4, TLR7 (Mus musculus, UniProt P58681); assay: In vivo mouse TLR7 PD model (gardiquimod-induced plasma IL-6 and IFN-alpha); details: C57BL/6 mice, 90 min after gardiquimod
T4 sequence (P58681 27-1050): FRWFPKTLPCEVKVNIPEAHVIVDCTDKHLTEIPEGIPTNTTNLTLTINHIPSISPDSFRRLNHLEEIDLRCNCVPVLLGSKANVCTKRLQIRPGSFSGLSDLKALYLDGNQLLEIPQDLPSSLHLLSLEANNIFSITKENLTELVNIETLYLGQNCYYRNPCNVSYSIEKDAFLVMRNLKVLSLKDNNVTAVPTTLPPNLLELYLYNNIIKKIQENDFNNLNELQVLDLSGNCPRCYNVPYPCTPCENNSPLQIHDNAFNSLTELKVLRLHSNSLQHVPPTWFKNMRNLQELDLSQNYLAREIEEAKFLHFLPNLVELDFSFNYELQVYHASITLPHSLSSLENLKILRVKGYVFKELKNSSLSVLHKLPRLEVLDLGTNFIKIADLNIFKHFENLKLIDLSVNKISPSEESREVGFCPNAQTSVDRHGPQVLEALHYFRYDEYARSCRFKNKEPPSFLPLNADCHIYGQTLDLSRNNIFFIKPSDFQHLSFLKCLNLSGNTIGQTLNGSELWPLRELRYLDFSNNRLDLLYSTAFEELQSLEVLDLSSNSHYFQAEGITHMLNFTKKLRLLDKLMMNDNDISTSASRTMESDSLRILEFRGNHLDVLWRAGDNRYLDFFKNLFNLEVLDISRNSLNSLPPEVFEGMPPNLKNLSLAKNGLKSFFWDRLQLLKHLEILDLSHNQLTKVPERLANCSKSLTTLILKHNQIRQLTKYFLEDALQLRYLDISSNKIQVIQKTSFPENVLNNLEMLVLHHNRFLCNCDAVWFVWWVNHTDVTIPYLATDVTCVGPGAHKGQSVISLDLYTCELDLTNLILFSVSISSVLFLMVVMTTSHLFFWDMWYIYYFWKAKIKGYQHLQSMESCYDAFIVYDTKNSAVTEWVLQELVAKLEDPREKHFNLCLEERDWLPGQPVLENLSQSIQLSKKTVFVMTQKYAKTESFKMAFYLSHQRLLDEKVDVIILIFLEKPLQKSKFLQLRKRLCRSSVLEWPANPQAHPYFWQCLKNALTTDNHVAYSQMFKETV
Protocol: In Vivo Mouse TLR7 PD Model:
Adult male C57BL/6 mice were used for the experiments. Mice (7 to 10 per group) were randomized into different treatment groups based on body weight. Mice from the respective treatment groups were administered orally with vehicle or test compound. Thirty min after the oral administration of vehicle or test compound, mice were challenged with intraperitoneal injection of gardiquimod for TLR7 PD model. Ninety minutes after gardiquimod injection, mice were bled under isoflurane anaesthesia and plasma IL-6 and IFN-alpha levels were estimated by using commercially available ELISA kit (BD Biosciences, PBL Life Sciences). At the end of experiment, mean cytokine data was plotted and one way ANOVA with Dunnett's test was performed to calculate the significance of test compound treated group vs. vehicle control group. Percent inhibition of cytokine induction was calculated for test compound treated group vs vehicle control group.

IC50 [1]: 0.00292 µM
IC50 [2]: 20.7 µM
IC50 [3]: 0.00031 µM
Compound: Cc1c(-c2[nH]c3sc(C4CCC(NCC(=O)N5CCOCC5)CC4)nc3c2C(C)C)cn2ncnc2c1C (single isomer, unassigned) [Example 207, 2-((4-(5-(7,8-dimethyl-[1,2,4]triazolo[1,5-a]pyridin-6-yl)-6-isopropyl-4H-pyrrolo[3,2-d]thiazol-2-yl)cyclohexyl)amino)-1-morpholinoethan-1-one]

IC50 [1]: > 3.13 µM
IC50 [3]: > 3.13 µM
Compound: COc1cc(-c2c(C(C)C)c3nc(C4CCN(CC(F)(F)F)CC4)sc3n2CC(F)(F)F)cn2ncnc12 [Example 9, 6-isopropyl-5-(8-methoxy-[1,2,4]triazolo[1,5-a]pyridin-6-yl)-4-(2,2,2-trifluoroethyl)-2-(1-(2,2,2-trifluoroethyl)piperidin-4-yl)-4H-pyrrolo[3,2-d]thiazole]

IC50 [1]: > 3.13 µM
IC50 [3]: > 3.13 µM
Compound: Cc1cc(-c2[nH]c3sc(N4CCN(C5CCC5)C[C@H]4C)nc3c2C(C)C)cn2ncnc12 [Example 362, (R)-2-(4-cyclobutyl-2-methylpiperazin-1-yl)-6-isopropyl-5-(8-methyl-[1,2,4]triazolo[1,5-a]pyridin-6-yl)-4H-pyrrolo[3,2-d]thiazole]

% inhibition of IFN-alpha ([4]; oral dose 0.001 mg/kg): 50%
% inhibition of IL6 ([4]; oral dose 0.001 mg/kg): 21%
% inhibition of IFN-alpha ([4]; oral dose 0.005 mg/kg): 63%
% inhibition of IL6 ([4]; oral dose 0.005 mg/kg): 42%
% inhibition of IFN-alpha ([4]; oral dose 0.025 mg/kg): 97%
% inhibition of IL6 ([4]; oral dose 0.025 mg/kg): 78%
% inhibition of IFN-alpha ([4]; oral dose 0.050 mg/kg): 99%
% inhibition of IL6 ([4]; oral dose 0.050 mg/kg): 94%
Compound: COc1cc(-c2[nH]c3sc(C4CCC(NC5COC5)CC4)nc3c2C(C)C)cn2ncnc12 (single isomer, unassigned) [Example 65, N-(4-(6-isopropyl-5-(8-methoxy-[1,2,4]triazolo[1,5-a]pyridin-6-yl)-4H-pyrrolo[3,2-d]thiazol-2-yl)cyclohexyl)oxetan-3-amine]
